According to PMC6300691, “Enhancement of Heat Stability and Kinetic Parameters of the Maize Endosperm ADP-Glucose Pyrophosphorylase by Mutagenesis of Amino Acids in the Small Subunit With High B Factors” (Frontiers in Plant Science, 2018):
Positions count from the first letter of the chain named.

Experiments:
Format in all cases: biochemical
[1] = molecular target: T1, E123G, R331K (Zea mays, UniProt P55241+Q947C0, E123G/R331K); assay: Activation constant from initial rates with varied 3-PGA (0-1 mM) at 2 mM ATP and 2 mM G-1-P, pH 7.4, 15 mM MgCl2, fitted to V = Vmin + Vmax*X/(Ka + X).
T1 construct: BT2 variant with wild type SH2, E. coli, purified
Source text: (§1) All reactions were developed as above.

[2] = molecular target: T2, E123G, R331K, L404H (Zea mays, UniProt P55241+Q947C0, E123G/R331K/L404H); assay: as above
T2 construct: BT2 variant with wild type SH2, E. coli, purified
Source text: as §1

[3] = molecular target: T3, E123Q (Zea mays, UniProt P55241+Q947C0, E123Q); assay: as above
T3 construct: BT2 variant with wild type SH2, E. coli, purified
Source text: as §1

[4] = molecular target: T4, K402R (Zea mays, UniProt P55241+Q947C0, K402R); assay: as above
T4 construct: BT2 variant with wild type SH2, E. coli, purified
Source text: as §1

[5] = molecular target: T5, K403E (Zea mays, UniProt P55241+Q947C0, K403E); assay: as above
T5 construct: BT2 variant with wild type SH2, E. coli, purified
Source text: as §1

[6] = molecular target: T6, L404H (Zea mays, UniProt P55241+Q947C0, L404H); assay: as above
T6 construct: BT2 variant with wild type SH2, E. coli, purified
Source text: as §1

[7] = molecular target: T7, L404K (Zea mays, UniProt P55241+Q947C0, L404K); assay: as above
T7 construct: BT2 variant with wild type SH2, E. coli, purified
Source text: as §1

[8] = molecular target: T8, SH2-E (Zea mays, UniProt P55241+Q947C0, N131R/T142F/A160T/Q261S/A396S/V416I/C424V/S444A); assay: as above
T8 construct: SH2-E with wild type BT2 (SH2-E/BT2-WT), E. coli, purified
T8 sequence (Q947C0 1-475): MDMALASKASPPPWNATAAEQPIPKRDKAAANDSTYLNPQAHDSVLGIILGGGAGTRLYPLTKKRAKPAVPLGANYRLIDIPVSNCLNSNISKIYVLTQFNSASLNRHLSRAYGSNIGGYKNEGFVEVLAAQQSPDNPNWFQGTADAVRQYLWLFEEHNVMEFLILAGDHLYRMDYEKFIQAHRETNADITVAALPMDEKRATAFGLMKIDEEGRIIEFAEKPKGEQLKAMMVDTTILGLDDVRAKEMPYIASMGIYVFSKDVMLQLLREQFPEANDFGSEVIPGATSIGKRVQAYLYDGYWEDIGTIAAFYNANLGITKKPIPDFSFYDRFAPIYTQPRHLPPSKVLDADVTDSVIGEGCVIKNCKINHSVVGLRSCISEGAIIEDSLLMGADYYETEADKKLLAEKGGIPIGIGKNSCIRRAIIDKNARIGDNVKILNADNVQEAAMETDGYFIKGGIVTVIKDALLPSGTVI
T8 sequence (P55241 46-516 N131R/T142F/A160T/Q261S/A396S/V416I/C424V/S444A): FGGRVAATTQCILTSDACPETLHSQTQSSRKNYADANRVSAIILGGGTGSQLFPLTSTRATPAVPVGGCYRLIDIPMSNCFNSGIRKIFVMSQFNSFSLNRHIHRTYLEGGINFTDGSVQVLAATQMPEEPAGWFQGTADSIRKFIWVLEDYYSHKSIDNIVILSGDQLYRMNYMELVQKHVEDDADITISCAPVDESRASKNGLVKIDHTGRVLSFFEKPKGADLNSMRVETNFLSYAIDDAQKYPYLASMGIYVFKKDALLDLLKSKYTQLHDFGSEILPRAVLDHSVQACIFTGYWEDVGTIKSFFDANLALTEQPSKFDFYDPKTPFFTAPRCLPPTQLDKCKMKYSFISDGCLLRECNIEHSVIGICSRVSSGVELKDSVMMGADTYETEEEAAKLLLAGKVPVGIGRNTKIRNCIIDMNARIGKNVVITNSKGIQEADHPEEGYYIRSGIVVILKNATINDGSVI
Source text: as §1

[9] = molecular target: T9, SH2-E/BT2-BF (Zea mays, UniProt P55241+Q947C0, E123G/N131R/T142F/A160T/Q261S/R331K/A396S/K402R/V416I/C424V/S444A); assay: as above
T9 construct: SH2-E co-expressed with BT2-BF, E. coli, purified
T9 sequence (Q947C0 1-475 E123G/R331K/K402R): T8 sequence (Q947C0 1-475) with E123G, R331K, K402R
T9 sequence (P55241 46-516 N131R/T142F/A160T/Q261S/A396S/V416I/C424V/S444A): T8 sequence (P55241 46-516 N131R/T142F/A160T/Q261S/A396S/V416I/C424V/S444A)
Source text: as §1

[10] = molecular target: T10, SH2-ISM/BT2-BF (Zea mays, UniProt P55241+Q947C0, Q96G/E123G/D161G/R331K/K402R/A443R); assay: as above
T10 construct: SH2-ISM co-expressed with BT2-BF, E. coli, purified
T10 sequence (Q947C0 1-475 E123G/R331K/K402R): T8 sequence (Q947C0 1-475) with E123G, R331K, K402R
T10 sequence (P55241 46-516 Q96G/D161G/A443R): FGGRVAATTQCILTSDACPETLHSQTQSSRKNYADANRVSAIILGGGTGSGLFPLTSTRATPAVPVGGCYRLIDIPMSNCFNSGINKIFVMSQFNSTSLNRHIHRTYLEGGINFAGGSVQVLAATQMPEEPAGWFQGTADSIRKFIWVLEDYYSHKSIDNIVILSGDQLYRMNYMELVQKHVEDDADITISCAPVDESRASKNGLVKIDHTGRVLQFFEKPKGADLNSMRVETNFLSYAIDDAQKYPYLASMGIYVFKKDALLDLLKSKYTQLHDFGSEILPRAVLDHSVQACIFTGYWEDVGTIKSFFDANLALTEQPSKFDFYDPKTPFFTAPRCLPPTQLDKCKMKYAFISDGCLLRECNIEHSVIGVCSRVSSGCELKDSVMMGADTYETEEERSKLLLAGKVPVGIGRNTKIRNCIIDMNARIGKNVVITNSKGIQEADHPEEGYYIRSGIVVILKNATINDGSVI
Source text: as §1

[11] = molecular target: T9, SH2-E/BT2-BF; assay: Pi inhibition study without 3-PGA, ATP varied (0.1-3 mM) at fixed Pi levels (10-30 mM) and sub-saturating G-1-P (1 mM), fit to mixed-type inhibition equations.; conditions: read-out: Km (mM), varied substrate ATP, Pi inhibition in the absence of 3-PGA
Protocol: Pi inhibition was carried out in both the presence and absence of 3-PGA with the Pi and substrate concentrations listed below.
Pi inhibition patterns in the presence and absence of 3PGA were also determined. Pi inhibition patterns were obtained by varying one substrate at several fixed concentrations of Pi, while holding the co-substrate at constant sub-saturating levels.

T2 sequence (Q947C0 1-475 E123G/R331K/L404H): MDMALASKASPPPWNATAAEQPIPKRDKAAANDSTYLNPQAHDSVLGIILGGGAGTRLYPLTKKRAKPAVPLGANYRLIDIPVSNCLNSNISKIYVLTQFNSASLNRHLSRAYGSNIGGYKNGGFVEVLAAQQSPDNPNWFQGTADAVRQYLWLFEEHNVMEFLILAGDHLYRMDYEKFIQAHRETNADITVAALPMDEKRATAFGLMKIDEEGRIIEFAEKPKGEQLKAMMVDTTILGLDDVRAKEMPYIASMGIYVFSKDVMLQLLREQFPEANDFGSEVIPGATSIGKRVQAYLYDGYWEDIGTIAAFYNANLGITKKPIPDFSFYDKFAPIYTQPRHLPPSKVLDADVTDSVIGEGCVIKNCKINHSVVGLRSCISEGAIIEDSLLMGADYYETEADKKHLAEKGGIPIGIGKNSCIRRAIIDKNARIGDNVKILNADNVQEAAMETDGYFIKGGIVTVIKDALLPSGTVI
T2 sequence (P55241 46-516, stated change not applied): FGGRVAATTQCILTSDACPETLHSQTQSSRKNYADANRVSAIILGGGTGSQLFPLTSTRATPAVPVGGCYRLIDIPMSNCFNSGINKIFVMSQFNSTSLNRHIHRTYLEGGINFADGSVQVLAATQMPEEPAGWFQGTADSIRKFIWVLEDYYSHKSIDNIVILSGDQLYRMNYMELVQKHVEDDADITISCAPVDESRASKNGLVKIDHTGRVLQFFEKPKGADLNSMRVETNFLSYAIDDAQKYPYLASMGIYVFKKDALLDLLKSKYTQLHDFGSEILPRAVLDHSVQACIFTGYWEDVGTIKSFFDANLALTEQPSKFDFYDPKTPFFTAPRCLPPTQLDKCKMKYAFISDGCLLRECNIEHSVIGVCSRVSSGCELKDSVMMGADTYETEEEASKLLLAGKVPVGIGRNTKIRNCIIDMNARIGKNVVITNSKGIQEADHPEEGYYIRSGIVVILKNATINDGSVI
T1 sequence (Q947C0 1-475 E123G/R331K): as the sequence (Q947C0 1-475 E123G/R331K/L404H) above, with H404L counted along it
T1 sequence (P55241 46-516): as the sequence (P55241 46-516, stated change not applied) above
T7 sequence (Q947C0 1-475 L404K): as the sequence (Q947C0 1-475 E123G/R331K/L404H) above, with G123E, K331R, H404K counted along it
T7 sequence (P55241 46-516, stated change not applied): as the sequence (P55241 46-516, stated change not applied) above
T4 sequence (Q947C0 1-475 K402R): as the sequence (Q947C0 1-475 E123G/R331K/L404H) above, with G123E, K331R, K402R, H404L counted along it
T4 sequence (P55241 46-516): as the sequence (P55241 46-516, stated change not applied) above
T3 sequence (Q947C0 1-475 E123Q): as the sequence (Q947C0 1-475 E123G/R331K/L404H) above, with G123Q, K331R, H404L counted along it
T3 sequence (P55241 46-516): as the sequence (P55241 46-516, stated change not applied) above
T5 sequence (Q947C0 1-475 K403E): as the sequence (Q947C0 1-475 E123G/R331K/L404H) above, with G123E, K331R, K403E, H404L counted along it
T5 sequence (P55241 46-516): as the sequence (P55241 46-516, stated change not applied) above
T6 sequence (Q947C0 1-475 L404H): as the sequence (Q947C0 1-475 E123G/R331K/L404H) above, with G123E, K331R counted along it
T6 sequence (P55241 46-516, stated change not applied): as the sequence (P55241 46-516, stated change not applied) above

SMILES	3-PGA Ka (activation constant) [1]	3-PGA Ka (activation constant) [2]	3-PGA Ka (activation constant) [3]	3-PGA Ka (activation constant) [4]	3-PGA Ka (activation constant) [5]	3-PGA Ka (activation constant) [6]	3-PGA Ka (activation constant) [7]	3-PGA Ka (activation constant) [8]	3-PGA Ka (activation constant) [9]	3-PGA Ka (activation constant) [10]	Km [11]
O=C(O)[C@H](O)COP(=O)(O)O [3-PGA, 3-phosphoglycerate (3-phosphoglyceric acid)]	0.183 ± 0.024	0.059 ± 0.11	0.12 ± 0.022	0.077 ± 0.014	0.14 ± 0.015	0.05 ± 0.008	0.14 ± 0.047	0.070 ± 0.01	0.36 ± 0.09	0.23 ± 0.11	
Nc1ncnc2c1ncn2[C@@H]1O[C@H](COP(=O)(O)OP(=O)(O)OP(=O)(O)O)[C@@H](O)[C@H]1O [ATP, adenosine 5'-triphosphate]											4.98 ± 0.66 mM
